In brackets after ≈: the same amount, converted by molar mass.
Tested on: Pseudomonas aeruginosa FP 1380
Assay: In vitro antibacterial activity (MIC) by the two-fold agar-plate dilution method
Type: cell-based
Conditions: test strain Pseudomonas aeruginosa FP 1380, heart infusion agar, incubation at 37° C. for 20 hours; for MIC: FP1380, read-out: MIC (minimal inhibitory concentration)
Description: In vitro antibacterial activity was determined by the two-fold agar-plate dilution method as described below.
One loopful of an overnight culture of each test strain in Trypticase-soy broth (10^6 viable cells per ml) was streaked on heart infusion agar (HI-agar) containing graded concentrations of representative test compound, and the minimal inhibitory concentration (MIC) was expressed in μg/ml after incubation at 37° C. for 20 hours.

MIC [µg/mL]	MIC (minimal inhibitory concentration) [µg/mL]	SMILES
1	–	Cn1c(N)c(NC(=N)N)c[n+]1CC1=C(C(=O)O)N2C(=O)[C@@H](NC(=O)/C(=N\OC(C)(C)C(=O)O)c3nsc(N)n3)[C@H]2SC1.O=S(=O)([O-])O [Compound (e), 7β-[(Z)-2-(5-amino-1,2,4-thiadiazol-3-yl)-2-(1-carboxy-1-methylethoxyimino)acetamido]-3-(3-amino-4-guanidino-2-methyl-1-pyrazolio)methyl-3-cephem-4-carboxylic acid hydrogen sulfate]
2	–	Cn1c(N)c(NC(=O)CN)c[n+]1CC1=C(C(=O)O)N2C(=O)[C@@H](NC(=O)/C(=N\OC(C)(C)C(=O)O)c3nsc(N)n3)[C@H]2SC1.O=S(=O)([O-])O [Compound (c), 7β-[(Z)-2-(5-amino-1,2,4-thiadiazol-3-yl)-2-(1-carboxy-1-methylethoxyimino)acetamido]-3-[3-amino-4-(aminoacetyl)amino-2-methyl-1-pyrazolio]methyl-3-cephem-4-carboxylic acid hydrogen sulfate]
1 (≈ 1.53 µM)	–	Cn1c(N)c(NC(=O)CCN)c[n+]1CC1=C(C(=O)[O-])N2C(=O)[C@@H](NC(=O)/C(=N\OC(C)(C)C(=O)O)c3nsc(N)n3)[C@H]2SC1 [Compound (b), 7β-[(Z)-2-(5-amino-1,2,4-thiadiazol-3-yl)-2-(1-carboxy-1-methylethoxyimino)acetamido]-3-[3-amino-4-(3-aminopropionamido)-2-methyl-1-pyrazolio]methyl-3-cephem-4-carboxylate]
128 (≈ 234 µM)	–	CC(C)(O/N=C(\C(=O)N[C@@H]1C(=O)N2C(C(=O)[O-])=C(C[n+]3ccccc3)CS[C@H]12)c1csc(N)n1)C(=O)O [Ceftazidime, reference compound]
2	–	Cn1c(N)c(NC(=O)NCCN)c[n+]1CC1=C(C(=O)O)N2C(=O)[C@@H](NC(=O)/C(=N\OC(C)(C)C(=O)O)c3nsc(N)n3)[C@H]2SC1.O=S(=O)([O-])O [Compound (d), 7β-[(Z)-2-(5-amino-1,2,4-thiadiazol-3-yl)-2-(1-carboxy-1-methylethoxyimino)acetamido]-3-{3-amino-4-[3-(2-aminoethyl)ureido]-2-methyl-1-pyrazolio}methyl-3-cephem-4-carboxylic acid hydrogen sulfate]
–	2 (≈ 3.01 µM)	CC(C)(O/N=C(\C(=O)N[C@@H]1C(=O)N2C(C(=O)[O-])=C(C[n+]3cc(NC(=O)CCN)c4n3CCN4)CS[C@H]12)c1nsc(N)n1)C(=O)O [Compound (a), 7β-[(Z)-2-(5-amino-1,2,4-thiadiazol-3-yl)-2-(1-carboxy-1-methylethoxyimino)acetamido]-3-[7-(3-aminopropionamido)-2,3-dihydro-5-(1H-imidazo[1,2-b]pyrazolio)]methyl-3-cephem-4-carboxylate]
